Results taken from US9376420B2 (YUHAN CORPORATION, priority 2012, dated 2016).

Target: T1, human LXRβ (Homo sapiens, UniProt P55055)
T1 construct: expressed in transfected cells; host or cells: HEK293 cells (ATCC CRL-1573), transient transfection with pFA-hLXRβ/GAL4 and pUAS
T1 sequence (P55055 222-460 limits assumed): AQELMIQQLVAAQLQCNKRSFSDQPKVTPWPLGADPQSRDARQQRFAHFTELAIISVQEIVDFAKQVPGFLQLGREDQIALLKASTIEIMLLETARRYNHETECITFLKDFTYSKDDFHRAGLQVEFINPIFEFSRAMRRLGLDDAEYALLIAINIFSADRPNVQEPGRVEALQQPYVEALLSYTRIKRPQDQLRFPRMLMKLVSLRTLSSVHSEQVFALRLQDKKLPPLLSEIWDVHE
Assay: Assay for Transcriptional Activity of LXRβ (GAL4-hLXRβ LBD luciferase reporter, transient transfection)
Format: cell-based
Conditions: HEK293 cells transfected with pFA-hLXRβ/GAL4 and pUAS, 24 hours; for Emax: fold value in comparison with the control (DMSO-treated group); for EC50: increase of transcriptional activity of LXRβ, average of three independent tests
Procedure, shortened: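 HEK293 cells transiently co-transfected with GAL4-hLXRβ LBD and 5×GAL4-UAS luciferase reporter, treated 24 h at 37 °C with compounds over 9 points (0.01–50 μM, half-log). Luminescence read after lysis; EC50 from four-parameter fit, mean of three independent tests, with a known LXR agonist as positive control.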

SMILES	Emax [fold]	EC50 [nM]
O=S(=O)(C1CCCC1)N1CC=C(c2ccc(C3CC(C(O)(C(F)(F)F)C(F)(F)F)=NN3c3ccccc3Cl)cc2)CC1 (centres unmarked) [Example 306, 1-(2-chloro-phenyl)-5-[4-(1-cyclopentanesulfonyl-1,2,3,6-tetrahydropyridin-4-yl)-phenyl]-3-[di-(trifluoromethyl)-hydroxy-methyl]-4,5-dihydro-1H-pyrazole]	59	1250
CS(=O)(=O)N1CCN(c2ccc(C3CC(C(O)(C(F)(F)F)C(F)(F)F)=NN3c3ccccc3Cl)cc2)CC1 (centres unmarked) [Example 312, 1-(2-chloro-phenyl)-5-[4-(4-methanesulfonyl-piperazin-1-yl)-phenyl]-3-[di-(trifluoromethyl)-hydroxy-methyl]-4,5-dihydro-1H-pyrazole]	46	2540
O=S(=O)(N1CCCC1)N1CCN(c2ccc(C3CC(C(O)(C(F)(F)F)C(F)(F)F)=NN3c3ccccc3Cl)cc2)CC1 (centres unmarked) [Example 319, 1-(2-chloro-phenyl)-5-{4-[4-(pyrrolidine-1-sulfonyl)-piperazin-1-yl]-phenyl}-3-[di-(trifluoromethyl)-hydroxy-methyl]-4,5-dihydro-1H-pyrazole]	39	1830
CNCCCS(=O)(=O)c1cccc(-c2ccc(C3CC(C(O)(C(F)(F)F)C(F)(F)F)=NN3c3ccc(F)cc3F)cc2)c1 (centres unmarked) [Example 412, 1-(2,4-difluoro-phenyl)-5-{3′-[3-(methyl-amino)-propane-1-sulfonyl]-biphenyl-4-yl}-3-[di-(trifluoromethyl)-hydroxy-methyl]-4,5-dihydro-1H-pyrazole]	53	727
Oc1cccc(-c2cccc(C3CC(C(F)(F)C(F)(F)F)=NN3c3ccccc3Cl)c2)c1 (centres unmarked) [Example 111, 1-(2-chloro-phenyl)-5-(3′-hydroxy-biphenyl-3-yl)-3-pentafluoroethyl-4,5-dihydro-1H-pyrazole]	41	4150
OC(C1=NN(c2ccccc2Cl)C(c2ccc(-c3cc4ccccc4s3)cc2)C1)(C(F)(F)F)C(F)(F)F (centres unmarked) [Example 263, 5-(4-benzo[b]thiophen-2-yl-phenyl)-1-(2-chloro-phenyl)-3-[di-(trifluoromethyl)-hydroxy-methyl]-4,5-dihydro-1H-pyrazole]	72	1270
CN(C)S(=O)(=O)c1cccc(-c2cccc(N3N=C(C(F)(F)C(F)(F)F)CC3c3ccc(F)cc3F)c2)n1 (centres unmarked) [Example 209, 5-(2,4-difluoro-phenyl)-1-[3-(6-dimethylsulfamoyl-pyridin-2-yl)-phenyl]-3-pentafluoroethyl-4,5-dihydro-1H-pyrazole]	20	5110
COc1ncccc1-c1cccc(C2CC(C(F)(F)C(F)(F)F)=NN2c2ccc(F)cc2F)c1 (centres unmarked) [Example 75, 1-(2,4-difluoro-phenyl)-5-(3-(2-methoxy-pyridin-3-yl)-phenyl)-3-pentafluoroethyl-4,5-dihydro-1H-pyrazole]	63	1120
CS(=O)(=O)N1CC=C(c2cc(C3CC(C(F)(F)C(F)(F)F)=NN3c3ccc(F)cc3F)ccn2)CC1 (centres unmarked) [Example 191, 1-(2,4-difluoro-phenyl)-5-[2-(1-methanesulfonyl-1,2,3,6-tetrahydropyridin-4-yl)-pyridin-4-yl]-3-pentafluoroethyl-4,5-dihydro-1H-pyrazole]	50	6700
CC(C)(C)OC(=O)N1CC=C(c2ccc(C3CC(C(O)(C(F)(F)F)C(F)(F)F)=NN3c3ccc(F)cc3F)cc2)CC1 (centres unmarked) [Example 398, 1-(2,4-difluoro-phenyl)-5-[4-(1-BOC-1,2,3,6-tetrahydropyridin-4-yl)-phenyl]-3-[di-(trifluoromethyl)-hydroxy-methyl]-4,5-dihydro-1H-pyrazole]	12	1810
OC(C1=NN(c2ccccc2Cl)C(c2ccc(-c3ccoc3)cc2)C1)(C(F)(F)F)C(F)(F)F (centres unmarked) [Example 257, 1-(2-chloro-phenyl)-5-(4-furan-3-yl-phenyl)-3-[di-(trifluoromethyl)-hydroxy-methyl]-4,5-dihydro-1H-pyrazole]	57	1840

Now those with a lower EC50, led by results:

Emax [fold]	EC50 [nM]	SMILES
47	519	OC(C1=NN(c2ccccc2Cl)C(c2ccc(-c3cc(F)c(-n4cncn4)cc3F)cc2)C1)(C(F)(F)F)C(F)(F)F (centres unmarked) [Example 287, 1-(2-chloro-phenyl)-5-[2′,5′-difluoro-4′-(1H-1,2,4-triazol-1-yl)-biphenyl-4-yl]-3-[di-(trifluoromethyl)-hydroxy-methyl]-4,5-dihydro-1H-pyrazole]
48	437	COc1cc(C)c(-c2ccc(C3CC(C(O)(C(F)(F)F)C(F)(F)F)=NN3c3ccccc3Cl)cc2)cn1 (centres unmarked) [Example 270, 1-(2-chloro-phenyl)-5-[4-(6-methoxy-4-methyl-pyridin-3-yl)-phenyl]-3-[di-(trifluoromethyl)-hydroxy-methyl]-4,5-dihydro-1H-pyrazole]
28	666	CSc1cccc(-c2ccc(C3CC(C(O)(C(F)(F)F)C(F)(F)F)=NN3c3ccc(F)cc3F)cc2)c1 (centres unmarked) [Example 369, 1-(2,4-difluoro-phenyl)-5-(3′-methylsulfanyl-biphenyl-4-yl)-3-[di-(trifluoromethyl)-hydroxy-methyl]-4,5-dihydro-1H-pyrazole]
49	156	CS(=O)(=O)c1cccc(-c2ccc(C3CC(C(O)(C(F)(F)F)C(F)(F)F)=NN3c3ccc(F)cc3F)cc2)c1 (centres unmarked) [Example 413, 1-(2,4-difluoro-phenyl)-5-[3′-methanesulfonyl-biphenyl-4-yl]-3-[di-(trifluoromethyl)-hydroxy-methyl]-4,5-dihydro-1H-pyrazole]
42	412	OC(C1=NN(c2ccc(F)cc2F)C(c2ccc(-c3cncnc3)cc2)C1)(C(F)(F)F)C(F)(F)F (centres unmarked) [Example 372, 1-(2,4-difluoro-phenyl)-5-(4-pyrimidin-5-yl-phenyl)-3-[di-(trifluoromethyl)-hydroxy-methyl]-4,5-dihydro-1H-pyrazole]
100	298	CS(=O)(=O)c1ccc(-c2ccc(C3CC(C(O)(C(F)(F)F)C(F)(F)F)=NN3c3ccccc3Cl)cc2)cc1 (centres unmarked) [Example 244, 1-(2-chloro-phenyl)-5-[4′-(methanesulfonyl)-biphenyl-4-yl]-3-[di-(trifluoromethyl)-hydroxy-methyl]-4,5-dihydro-1H-pyrazole]
106	382	CNCCCS(=O)(=O)c1cccc(-c2cccc(C3CC(C(F)(F)C(F)(F)F)=NN3c3ccc(F)cc3F)c2)c1 (centres unmarked) [Example 89, 1-(2,4-difluoro-phenyl)-5-{3′-[3-(N-methyl-amino)-propane-1-sulfonyl]-biphenyl-3-yl}-3-pentafluoroethyl-4,5-dihydro-1H-pyrazole]
83	316	CCS(=O)(=O)N1CC=C(c2ccc(C3CC(C(O)(C(F)(F)F)C(F)(F)F)=NN3c3ccccc3Cl)cc2)CC1 (centres unmarked) [Example 299, 1-(2-chloro-phenyl)-5-[4-(1-ethanesulfonyl-1,2,3,6-tetrahydropyridin-4-yl)-phenyl]-3-[di-(trifluoromethyl)-hydroxy-methyl]-4,5-dihydro-1H-pyrazole]
